Assay results reported in patent US10988459B2 (priority 2015, dated 2021).

molecular target: human RIP1 kinase domain (2-375) (Homo sapiens (Human), UniProt Q13546); assay: biochemical; type: biochemical; details: Table 3; apparent Ki (Morrison tight-binding fit); 50 nM RIP1 kinase domain, 50 uM ATP, 2 hours incubation; read-out: Ki
Procedure, shortened: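 Ki^app comes from Morrison tight-binding fits of fractional activity versus compound concentration. Activity was read as ADP production, via tracer displacement lowering fluorescence polarization (633 nm laser). Conditions: 2 h, 50 nM insect-cell-expressed enzyme, 50 uM ATP, 30 mM MgCl2, 1 mM DTT, 0.5% DMSO, pH 7.5 Hepes.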

Chain of human RIP1 kinase domain (2-375) (Q13546 2-375): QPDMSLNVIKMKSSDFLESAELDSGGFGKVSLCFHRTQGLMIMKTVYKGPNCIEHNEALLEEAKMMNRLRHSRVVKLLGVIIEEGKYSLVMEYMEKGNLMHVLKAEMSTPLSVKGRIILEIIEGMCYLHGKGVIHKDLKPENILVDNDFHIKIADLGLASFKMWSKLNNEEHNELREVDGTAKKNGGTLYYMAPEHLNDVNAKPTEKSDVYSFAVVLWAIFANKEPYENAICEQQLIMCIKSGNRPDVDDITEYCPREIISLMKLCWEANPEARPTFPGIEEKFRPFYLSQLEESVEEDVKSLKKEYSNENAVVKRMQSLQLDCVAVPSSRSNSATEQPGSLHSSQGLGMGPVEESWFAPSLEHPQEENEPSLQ

Question: For `CCC1CCc2n[nH]c(C(=O)N[C@H]3COc4ccccc4N(C)C3=O)c2C1` (stereo partly drawn) [Example 335, 5-ethyl-N-((S)-5-methyl-4-oxo-2,3,4,5-tetrahydrobenzo[b][1,4]oxazepin-3-yl)-4,5,6,7-tetrahydro-2H-indazole-3-carboxamide], which Ki is on record?
Answer: Its Ki is 13 nM.

same assay, conditions: Table 5; apparent Ki (Morrison tight-binding fit); 50 nM RIP1 kinase domain, 50 uM ATP, 2 hours incubation; read-out: Ki

Question: How did the Ki turn out when `CN1C(=O)[C@@H](NC(=O)c2cc3c(-c4ccccc4F)cccn3n2)COc2ccccc21` [Example 708, 4-(2-fluorophenyl)-N-[(3S)-5-methyl-4-oxo-2,3-dihydro-1,5-benzoxazepin-3-yl]pyrazolo[1,5-a]pyridine-2-carboxamide] was run?
Answer: The Ki was 4 nM.

Question: How did the Ki turn out when `CN1C(=O)[C@@H](NC(=O)c2ncn(Cc3ccccc3F)n2)CCn2nc(CCN3CCOCC3)cc21` [Example 753] was run?
Answer: The Ki was 74 nM.

Question: For `CN1C(=O)[C@@H](NC(=O)c2ncn(Cc3ccccc3)n2)CCn2nc(CCN3CCOCC3)cc21` [Example 752, 1-benzyl-N-[(6S)-4-methyl-2-(2-morpholinoethyl)-5-oxo-7,8-dihydro-6H-pyrazolo[1,5-a][1,3]diazepin-6-yl]-1,2,4-triazole-3-carboxamide], which Ki is on record?
Answer: Its Ki is 116 nM.

Question: For `COC1CN(Cc2cc3n(n2)CC[C@H](NC(=O)c2ncn(Cc4ccccc4)n2)C(=O)N3C)C1` (single isomer, unassigned) [Example 725], which Ki is on record?
Answer: The Ki was 172 nM.

same assay, conditions: human RIP1 kinase domain (2-375), 50 uM ATP, 2 hours incubation, Transcreener ADP assay; read-out: RIP1 Ki

Question: `Cc1cc2n(n1)CC[C@H](NC(=O)c1ncn(Cc3ccc(F)cc3)n1)C(=O)N2C` [Example 222, (S)—N-(2,4-dimethyl-5-oxo-5,6,7,8-tetrahydro-4H-pyrazolo[1,5-a][1,3]diazepin-6-yl)-1-(4-fluorobenzyl)-1H-1,2,4-triazole-3-carboxamide] was tested. Which Ki did it give?
Answer: Its Ki is 25.9 nM.

Question: How did the Ki turn out when `CN1C(=O)[C@@H](NC(=O)c2n[nH]c3c2C[C@@H](C(F)(F)F)CC3)COc2c1cnn2C` [Example 188, (S)—N—((S)-1,4-dimethyl-5-oxo-4,5,6,7-tetrahydro-1H-pyrazolo[3,4-b][1,4]oxazepin-6-yl)-5-(trifluoromethyl)-4,5,6,7-tetrahydro-1H-indazole-3-carboxamide] was run?
Answer: Its Ki is 4500 nM.

Question: For `Cc1ccc2snc(C(=O)N[C@H]3COc4ccccc4N(C)C3=O)c2c1` [Example 90, (S)-5-methyl-N-(5-methyl-4-oxo-2,3,4,5-tetrahydrobenzo[b][1,4]oxazepin-3-yl)benzo[d]isothiazole-3-carboxamide], which Ki is on record?
Answer: The Ki was 18.6 nM.

Question: Which Ki does the source give for `CN1C(=O)[C@@H](NC(=O)c2nc3n(n2)[C@@H](c2ccccc2)CC3)CCn2nccc21` (single isomer, unassigned) [Example 125] here?
Answer: Its Ki is 891 nM.

Question: With `CN1C(=O)[C@@H](NC(=O)c2nnn3c2C[C@H](C(F)(F)F)CC3)COc2ccccc21` [Example 149, (R)-N-((S)-5-methyl-4-oxo-2,3,4,5-tetrahydrobenzo[b][1,4]oxazepin-3-yl)-5-(trifluoromethyl)-4,5,6,7-tetrahydro-[1,2,3]triazolo[1,5-a]pyridine-3-carboxamide] as the molecule, how does the Ki read?
Answer: The Ki was 64.3 nM.

Question: `CN1C(=O)[C@@H](NC(=O)c2nnn3c2CC2(CCCC2)C3)CCn2nccc21` [Example 120, (S)—N-(4-methyl-5-oxo-5,6,7,8-tetrahydro-4H-pyrazolo[1,5-a][1,3]diazepin-6-yl)-4′H,6′H-spiro[cyclopentane-1,5′-pyrrolo[1,2-c][1,2,3]triazole]-3′-carboxamide] was tested. Which Ki did it give?
Answer: The Ki was 2100 nM.

Question: For `CN1C(=O)[C@@H](NC(=O)c2cc3c(cn2)cnn3CC(F)(F)F)COc2ccccc21` [Example 127, N-[(3S)-5-methyl-4-oxo-2,3-dihydro-1,5-benzoxazepin-3-yl]-1-(2,2,2 trifluoroethyl)pyrazolo[4,3-c]pyridine-6-carboxamide], which Ki is on record?
Answer: Its Ki is 237 nM.

Question: How did the Ki turn out when `CN1C(=O)C(NC(=O)c2ncn(Cc3ccccc3)n2)CCn2nc(-c3ccccc3)cc21` (stereo not drawn) [Example 208, 1-benzyl-N-(4-methyl-5-oxo-2-phenyl-5,6,7,8-tetrahydro-4H-pyrazolo[1,5-a][1,3]diazepin-6-yl)-1H-1,2,4-triazole-3-carboxamide] was run?
Answer: Its Ki is 120 nM.

same assay, conditions: human RIP1 kinase domain (2-375), Transcreener ADP assay, 50 uM ATP, 2 hours incubation; read-out: RIP1 Ki

Question: `CC[C@]1(C)OCc2cnc(C(=O)N[C@H]3CCn4nc([C@H]5CC5(F)F)cc4N(C)C3=O)cc21` [Example 319, (S)—N—((S)-2-((R)-2,2-difluorocyclopropyl)-4-methyl-5-oxo-5,6,7,8-tetrahydro-4H-pyrazolo[1,5-a][1,3]diazepin-6-yl)-1-ethyl-1-methyl-1,3-dihydrofuro[3,4-c]pyridine-6-carboxamide] was tested. Which Ki did it give?
Answer: The Ki was greater than 10000 nM.

Question: For `CN1C(=O)[C@@H](NC(=O)c2ncn(Cc3ccc(F)cc3)n2)CCn2nc([C@H]3CC3(F)F)cc21` [Example 317, N—((S)-2-((R)-2,2-difluorocyclopropyl)-4-methyl-5-oxo-5,6,7,8-tetrahydro-4-pyrazolo[1,5-a][1,3]diazepin-6-yl)-1-(4-fluorobenzyl)-1H-1,2,4-triazole-3-carboxamide], which Ki is on record?
Answer: Its Ki is 6610 nM.

Question: `CN1C(=O)[C@@H](NC(=O)c2ncn(CC3(C)CC3)n2)CCn2nc(C3CC3)cc21` [Example 308, (S)—N-(2-cyclopropyl-4-methyl-5-oxo-5,6,7,8-tetrahydro-4H-pyrazolo[1,5-a][1,3]diazepin-6-yl)-1-((1-methylcyclopropyl)methyl)-1H-1,2,4-triazole-3-carboxamide] was tested. Which Ki did it give?
Answer: The Ki was 172 nM.

same assay, conditions: tight-binding apparent inhibition constant; human RIP1 kinase domain (2-375) 50 nM, 50 uM ATP, 2 hours; read-out: Ki

Question: Which Ki does the source give for `Cc1ncn2c1N(C)C(=O)[C@H](NC(=O)c1ncn(Cc3c(F)cccc3F)n1)CC2` [Example 581, 1-[(2,6-difluorophenyl)methyl]-N-(3R)-1,9-dimethyl-2-oxo-4,5-dihydro-3H-imidazo[1,5-a][1,3]diazepin-3-yl-1,2,4-triazole-3-carboxamide] here?
Answer: The Ki was 47 nM.

Question: For `CN1C(=O)[C@@H](NC(=O)c2ncn(Cc3ccccc3C#N)n2)CCn2nc(C3CC3)cc21` [Example 593], which Ki is on record?
Answer: Its Ki is 79 nM.

Question: With `Cc1cc2n(n1)CC[C@H](NC(=O)c1ncn(CC3(C)CCCC3)n1)C(=O)N2C` [Example 495, 1-[(1-methylcyclopentyl)methyl]-N-(6S)-2,4-dimethyl-5-oxo-7,8-dihydro-6H-pyrazolo[1,5-a][1,3]diazepin-6-yl-1,2,4-triazole-3-carboxamide] as the molecule, how does the Ki read?
Answer: Its Ki is 130 nM.

Question: For `CN1C(=O)[C@@H](NC(=O)c2nc3n(n2)CCOC3c2ccccc2)COc2ccccc21` (stereo partly drawn) [Example 515, 8-phenyl-N-[(3S)-5-methyl-4-oxo-2,3-dihydro-1,5-benzoxazepin-3-yl]-6,8-dihydro-5H-[1,2,4]triazolo[5,1-c][1,4]oxazine-2-carboxamide], which Ki is on record?
Answer: Its Ki is 29 nM.

Question: Which Ki does the source give for `CC(=O)c1cc2n(n1)CC[C@H](NC(=O)c1ncn(Cc3ccccc3)n1)C(=O)N2C` [Example 366, (S)—N-(2-acetyl-4-methyl-5-oxo-5,6,7,8-tetrahydro-4H-pyrazolo[1,5-a][1,3]diazepin-6-yl)-1-benzyl-1H-1,2,4-triazole-3-carboxamide] here?
Answer: The Ki was 17.3 nM.

Question: `Cc1cc2n(n1)CC[C@H](NC(=O)c1ncn(CC3CCCOC3)n1)C(=O)N2C` (stereo partly drawn) [Example 475, N-(6S)-2,4-dimethyl-5-oxo-7,8-dihydro-6H-pyrazolo[1,5-a][1,3]diazepin-6-yl-1-(tetrahydropyran-3-ylmethyl)-1,2,4-triazole-3-carboxamide] was tested. Which Ki did it give?
Answer: The Ki was 360 nM.

Question: How did the Ki turn out when `CN1C(=O)[C@@H](NC(=O)c2ncn(Cc3ccccc3Cl)n2)CCn2nc(C(F)(F)F)cc21` [Example 528] was run?
Answer: Its Ki is 4.8 nM.

Question: With `CN1C(=O)[C@@H](NC(=O)c2ncc3c(n2)[C@@]2(CCCOC2)OC3)COc2ccccc21` (racemic) [Example 692, rac-(7R)-N-[rac-(3S)-5-methyl-4-oxo-2,3-dihydro-1,5-benzoxazepin-3-yl]spiro[5H-furo[3,4-d]pyrimidine-7,3′-tetrahydropyran]-2-carboxamide] as the molecule, how does the Ki read?
Answer: The Ki was 113 nM.

Question: `CN1C(=O)[C@@H](NC(=O)c2nc3cccc(-c4ccccc4)n3n2)COc2ccccc21` [Example 373, (S)—N-(5-methyl-4-oxo-2,3,4,5-tetrahydrobenzo[b][1,4]oxazepin-3-yl)-5-phenyl-[1,2,4]triazolo[1,5-a]pyridine-2-carboxamide] was tested. Which Ki did it give?
Answer: The Ki was 4.3 nM.

Question: With `CCCC1(C)OCc2cnc(C(=O)N[C@H]3CCn4nc(C)cc4N(C)C3=O)nc21` (stereo partly drawn) [Example 564, 7-methyl-7-propyl-N-[(6S)-2,4-dimethyl-5-oxo-7,8-dihydro-6H-pyrazolo[1,5-a][1,3]diazepin-6-yl]-5H-furo[3,4-d]pyrimidine-2-carboxamide] as the molecule, how does the Ki read?
Answer: The Ki was 590 nM.

Question: `CN1C(=O)[C@@H](NC(=O)c2nc3n(n2)[C@H](C2CCOCC2)CCC3)COc2ccccc21` (racemic) [Example 410, (S)—N—((S)-5-methyl-4-oxo-2,3,4,5-tetrahydrobenzo[b][1,4]oxazepin-3-yl)-5-(tetrahydro-2H-pyran-4-yl)-5,6,7,8-tetrahydro-[1,2,4]triazolo[1,5-a]pyridine-2-carboxamide] was tested. Which Ki did it give?
Answer: The Ki was 121 nM.

Question: `Cc1cc2n(n1)CC[C@H](NC(=O)c1ncn(CC3CCCCO3)n1)C(=O)N2C` (stereo partly drawn) [Example 476, N-(6S)-2,4-dimethyl-5-oxo-7,8-dihydro-6H-pyrazolo[1,5-a][1,3]diazepin-6-yl-1-(tetrahydropyran-2-ylmethyl)-1,2,4-triazole-3-carboxamide] was tested. Which Ki did it give?
Answer: Its Ki is 310 nM.

Question: How did the Ki turn out when `Cc1cc2n(n1)CC[C@H](NC(=O)c1ncn(Cc3cccc(F)c3)n1)C(=O)N2C` [Example 519, 1-[(3-fluorophenyl)methyl]-N-(6S)-2,4-dimethyl-5-oxo-7,8-dihydro-6H-pyrazolo[1,5-a][1,3]diazepin-6-yl-1,2,4-triazole-3-carboxamide] was run?
Answer: Its Ki is 11 nM.

Question: For `CN1C(=O)C(NC(=O)c2ncn(Cc3ccccc3)n2)CCn2nc(CN3CCC(F)(F)C3)cc21` (single isomer, unassigned) [Example 448, 1-benzyl-N-(2-((3,3-difluoropyrrolidin-1-yl)methyl)-4-methyl-5-oxo-5,6,7,8-tetrahydro-4H-pyrazolo[1,5-a][1,3]diazepin-6-yl)-1H-1,2,4-triazole-3-carboxamide], which Ki is on record?
Answer: Its Ki is 214 nM.
